pKd: −log10 of the molar value. One block for each compound: values may come before it.
Assays:
Type in all cases: nucleic-acid assay
Nucleic Acid [1] = assay: Stabilization of 5'-d[(AT)10]-3' duplex DNA assessed as melting temperature at 20 uM by CD-spectrophotometry
Nucleic Acid [2] = assay: Stabilization of 5'-d[(G3T2A)3G3]-3' quadruplex DNA assessed as change in melting temperature at 10 uM by CD-spectrophotometry
Nucleic Acid [3] = assay: Binding affinity to 5'-d[(G3T2A)3G3]-3' quadruplex DNA by surface plasmon resonance
Nucleic Acid [4] = assay: Stabilization of 5'-d[(G3T2A)3G3]-3' quadruplex DNA assessed as change in melting temperature at 20 uM by CD-spectrophotometry
Nucleic Acid [5] = assay: Stabilization of 5'-d[(G3T2A)3G3]-3' quadruplex DNA assessed as change in melting temperature at 5 uM by CD-spectrophotometry

Tm (Nucleic Acid [1]): 63 °C
ΔTm (Nucleic Acid [2]): 14.7 °C
pKd (Nucleic Acid [3]): 6.48
ΔTm (Nucleic Acid [4]): 17.3 °C
ΔTm (Nucleic Acid [5]): 6.1 °C
SMILES: N=C(N)NCCCCNc1ccnc2c1ccc1c(NCCCCNC(=N)N)ccnc12

ΔTm (Nucleic Acid [2]): 14.2 °C
pKd (Nucleic Acid [3]): 6.39
ΔTm (Nucleic Acid [4]): 16.6 °C
ΔTm (Nucleic Acid [5]): 6 °C
SMILES: N=C(N)NCCCNc1ccnc2c1ccc1c(NCCCNC(=N)N)ccnc12

ΔTm (Nucleic Acid [2]): 8.8 °C
pKd (Nucleic Acid [3]): 6.09
ΔTm (Nucleic Acid [4]): 10.5 °C
ΔTm (Nucleic Acid [5]): 1.8 °C
SMILES: CN(C)CCNc1ccnc2c1ccc1c(NCCN(C)C)ccnc12

ΔTm (Nucleic Acid [2]): 9.9 °C
pKd (Nucleic Acid [3]): 6.40
ΔTm (Nucleic Acid [4]): 13.7 °C
ΔTm (Nucleic Acid [5]): 3 °C
SMILES: N=C(N)NCCNc1ccnc2c1ccc1c(NCCNC(=N)N)ccnc12

ΔTm (Nucleic Acid [4]): 0.1 °C
SMILES: Cc1ccnc2c1ccc1c(C)ccnc12

ΔTm (Nucleic Acid [4]): 1.3 °C
SMILES: Nc1ccnc2c1ccc1c(N)ccnc12

ΔTm (Nucleic Acid [2]): 10.6 °C
pKd (Nucleic Acid [3]): 6.35
ΔTm (Nucleic Acid [4]): 13.1 °C
ΔTm (Nucleic Acid [5]): 2.4 °C
SMILES: NCCCNc1ccnc2c1ccc1c(NCCCN)ccnc12

Further lines, the compound ahead of its results:

SMILES: NCCCCNc1ccnc2c1ccc1c(NCCCCN)ccnc12
Tm (Nucleic Acid [1]): 57 °C
ΔTm (Nucleic Acid [2]): 14.6 °C
pKd (Nucleic Acid [3]): 6.64
ΔTm (Nucleic Acid [4]): 15.3 °C
ΔTm (Nucleic Acid [5]): 2.5 °C

SMILES: c1cnc2c(c1)ccc1cccnc12
ΔTm (Nucleic Acid [4]): 0 °C

SMILES: CN(C)CCCCNc1ccnc2c1ccc1c(NCCCCN(C)C)ccnc12
ΔTm (Nucleic Acid [2]): 13 °C
pKd (Nucleic Acid [3]): 6.48
ΔTm (Nucleic Acid [4]): 14.4 °C
ΔTm (Nucleic Acid [5]): 2.3 °C

SMILES: CN(C)CCCNc1ccnc2c1ccc1c(NCCCN(C)C)ccnc12
ΔTm (Nucleic Acid [2]): 10.6 °C
pKd (Nucleic Acid [3]): 6.52
ΔTm (Nucleic Acid [4]): 13.3 °C
ΔTm (Nucleic Acid [5]): 1.9 °C

SMILES: NCCNc1ccnc2c1ccc1c(NCCN)ccnc12
ΔTm (Nucleic Acid [2]): 7.6 °C
pKd (Nucleic Acid [3]): 6.14
ΔTm (Nucleic Acid [4]): 9.9 °C
ΔTm (Nucleic Acid [5]): 2 °C
